The values below come from patent US7304174B2, “CaSR antagonist” (Japan Tobacco Inc., priority 2003, dated 2007).

In one experiment the target is T1, human calcium receptor (Homo sapiens, UniProt P41180).
T1 construct: expressed in transfected cells; host or cells: cell strain derived from rat adrenal, co-transformed with luciferase cDNA
T1 sequence (P41180 20-1078): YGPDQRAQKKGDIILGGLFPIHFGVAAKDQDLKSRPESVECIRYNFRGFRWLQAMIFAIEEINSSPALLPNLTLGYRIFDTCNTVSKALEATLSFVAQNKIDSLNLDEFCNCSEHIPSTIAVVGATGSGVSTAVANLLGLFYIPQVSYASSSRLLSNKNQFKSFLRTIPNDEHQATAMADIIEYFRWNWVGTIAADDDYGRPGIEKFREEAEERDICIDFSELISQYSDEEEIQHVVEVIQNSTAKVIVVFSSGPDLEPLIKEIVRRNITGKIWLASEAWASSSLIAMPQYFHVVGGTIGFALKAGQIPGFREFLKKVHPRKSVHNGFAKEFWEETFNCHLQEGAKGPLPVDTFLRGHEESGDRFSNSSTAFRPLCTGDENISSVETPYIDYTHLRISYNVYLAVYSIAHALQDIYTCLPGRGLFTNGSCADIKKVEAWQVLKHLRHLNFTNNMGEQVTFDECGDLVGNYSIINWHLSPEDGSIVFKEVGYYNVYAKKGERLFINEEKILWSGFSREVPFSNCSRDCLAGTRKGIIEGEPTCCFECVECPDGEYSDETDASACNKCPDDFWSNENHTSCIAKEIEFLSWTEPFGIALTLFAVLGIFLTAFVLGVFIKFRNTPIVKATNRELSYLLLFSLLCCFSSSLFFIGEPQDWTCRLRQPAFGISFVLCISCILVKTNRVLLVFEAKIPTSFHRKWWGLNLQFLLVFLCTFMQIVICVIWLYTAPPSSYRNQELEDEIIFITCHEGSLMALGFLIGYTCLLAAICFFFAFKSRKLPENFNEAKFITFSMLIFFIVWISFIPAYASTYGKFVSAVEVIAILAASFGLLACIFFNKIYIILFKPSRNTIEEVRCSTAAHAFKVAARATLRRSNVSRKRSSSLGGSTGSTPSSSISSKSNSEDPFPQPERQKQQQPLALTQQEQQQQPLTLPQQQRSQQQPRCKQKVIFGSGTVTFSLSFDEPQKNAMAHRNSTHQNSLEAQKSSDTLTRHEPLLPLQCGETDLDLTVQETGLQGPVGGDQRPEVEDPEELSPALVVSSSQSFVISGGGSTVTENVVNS
The experiment in a line: Evaluation of antagonistic action on calcium receptor using reporter gene (luciferase). As to conditions: transformed rat adrenal derived cells, 5 mM calcium chloride, culture 4 hrs, luciferase activity; read-out: Reporter gene assay (IC50, concentration showing 50% inhibitory rate). It counts as cell-based. Put shortly: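 Rat adrenal-derived cells transfected with luciferase and human calcium receptor cDNA, in F12 with 0.5% dialyzed horse serum and 0.25% dialyzed fetal bovine serum. Luciferase luminescence gave % inhibition vs control and blank; IC50 at 50% inhibition.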

Another experiment has as its system PTH secretion. The experiment in a line: PTH secretion action, Experimental Example 2 (serum PTH after oral administration). As to conditions: test compound administration group, 1 mg/5 ml/kg oral, rats fasted 20 hr. It counts as in vivo, male SD rats. On the procedure:
The test compound was orally administered to 5 to 9-week-old male SD rats (Charles River Japan, Inc.) fasted for 20 hr, using a solvent (0.5% methyl cellulose solution) at a dose of 1 mg/5 ml/kg. A solvent alone was orally administered to the control group at a dose of 5 ml/kg. The blood was drawn from the tail vein immediately before and, 15 min, 30 min, 60 min and 120 min after the administration of the test compound, and serum was obtained. The serum PTH concentration was measured using rat PTH ELISA kit (Amersham Biosciences).

With `Cc1ccc(CC(C)(C)NC[C@@H](O)CO[C@H](C)c2ccccc2-c2ccc(C(=O)O)c(C)c2)cc1Cl` [Example 1-3, 2′-[1-[(2R)-3-[[1-(3-chloro-4-methylphenyl)-2-methylpropan-2-yl]amino]-2-hydroxypropoxy]ethyl]-3-methylbiphenyl-4-carboxylic acid], the IC50 at human calcium receptor was determined as 10 nM. In the experiment on PTH secretion, the “Serum PTH concentration 15 min later” value came out at 23.8 ± 1.6 pg/mL, the “Serum PTH concentration 30 min later” value was found to be 25.1 ± 3.9 pg/mL, the “Serum PTH concentration 60 min later” value came out at 9.5 ± 0.5 pg/mL and the “Serum PTH concentration 120 min later” value worked out at 11.6 ± 0.9 pg/mL.
The matching figures for `Cc1cc(-c2ccccc2[C@@H](C)OC[C@H](O)CNC(C)(C)Cc2ccc(Cl)c(F)c2)ccc1C(=O)O` [Example 1-2, 2′-[(1R)-[(2R)-3-[[1-(4-Chloro-3-fluorophenyl)-2-methylpropan-2-yl]amino]-2-hydroxypropoxy]ethyl]-3-methylbiphenyl-4-carboxylic acid]: 13 nM, 28.5 ± 5.3 pg/mL, 27.1 ± 2.3 pg/mL, 10.5 ± 1.3 pg/mL and 12.4 ± 1.6 pg/mL.
On to `C[C@@H](OC[C@H](O)CNC(C)(C)Cc1ccc2ccccc2c1)c1ccccc1-c1ccc(C(=O)O)c(N)c1` [Example 1-70, 3-amino-2′-[1-[(2R)-3-[[1-(naphthalen-2-yl)-2-methylpropan-2-yl]amino]-2-hydroxypropoxy]ethyl]biphenyl-4-carboxylic acid], for which the IC50 at human calcium receptor worked out at 5 nM.
As for `Cc1c(C(=O)O)ccc(-c2ccccc2[C@@H](C)OC[C@H](O)CNC(C)(C)Cc2ccc3ccccc3c2)c1C` [Example 1-37, 2,3-dimethyl-2′-[1-[(2R)-3-[[1-(naphthalen-2-yl)-2-methylpropan-2-yl]amino]-2-hydroxypropoxy]ethyl]biphenyl-4-carboxylic acid], the IC50 on human calcium receptor amounted to 3 nM.
In the case of `Cc1cc(-c2ccccc2[C@@H](C)OC[C@H](O)CNC(C)(C)Cc2ccc3ccccc3c2)ccc1C(=O)O` [Example 1-12, 2′-[1-[(2R)-3-[[1-(naphthalen-2-yl)-2-methylpropan-2-yl]amino]-2-hydroxypropoxy]ethyl]-3-methylbiphenyl-4-carboxylic acid], the IC50 on human calcium receptor amounted to 13 nM.
`Cc1ccc(CC(C)(C)NC[C@@H](O)CO[C@H](C)c2ccccc2Oc2ccc(C(=O)O)cc2Cl)cc1F` [Example 2-30, 4-[2-[1-[(2R)-3-[[1-(3-fluoro-4-methylphenyl)-2-methylpropan-2-yl]amino]-2-hydroxypropoxy]ethyl]phenoxy]-3-chlorobenzoic acid]: on human calcium receptor, the IC50 stood at 3 nM.
As for `C[C@@H](OC[C@H](O)CNC(C)(C)Cc1ccc2ccccc2c1)c1ccccc1Cc1cccc(C(=O)O)c1` [Example 2-15, 3-[2-[1-[(2R)-3-[[1-(naphthalen-2-yl)-2-methylpropan-2-yl]amino]-2-hydroxypropoxy]ethyl]benzyl]benzoic acid], the IC50 on human calcium receptor worked out at 16 nM.
For `Cc1cc(-c2ccccc2[C@@H](C)OC[C@H](O)CNC(C)(C)Cc2ccc3ccccc3c2)cc(C)c1C(=O)O` [Example 1-40, 3,5-dimethyl-2′-[1-[(2R)-3-[[1-(naphthalen-2-yl)-2-methylpropan-2-yl]amino]-2-hydroxypropoxy]ethyl]biphenyl-4-carboxylic acid], at human calcium receptor, the IC50 is 3 nM.
Still for that read-out and setting: under `Cc1ccc(CC(C)(C)NC[C@@H](O)CO[C@H](C)c2ccccc2Oc2ccc(C(=O)O)c(C(F)(F)F)c2)cc1F` [Example 2-32, 4-[2-[1-[(2R)-3-[[1-(3-fluoro-4-methylphenyl)-2-methylpropan-2-yl]amino]-2-hydroxypropoxy]ethyl]phenoxy]-2-trifluoromethylbenzoic acid] stands 14 nM; under `COc1cc(CC(C)(C)NC[C@@H](O)CO[C@H](C)c2ccccc2-c2ccc(C(=O)O)c(C)c2)ccc1Cl` [Example 1-23, 2′-[1-[(2R)-3-[[1-(4-chloro-3-methoxyphenyl)-2-methylpropan-2-yl]amino]-2-hydroxypropoxy]ethyl]-3-methylbiphenyl-4-carboxylic acid], 16 nM; under `C[C@@H](OC[C@H](O)CNC(C)(C)Cc1ccc2ccccc2c1)c1ccccc1-c1ccc(C(=O)O)cc1F` [Example 1-62, 2-fluoro-2′-[1-[(2R)-3-[[1-(naphthalen-2-yl)-2-methylpropan-2-yl]amino]-2-hydroxypropoxy]ethyl]biphenyl-4-carboxylic acid], 8 nM.
For the molecule `CC(=O)Nc1cc(-c2ccccc2[C@@H](C)OC[C@H](O)CNC(C)(C)Cc2ccc3ccccc3c2)ccc1C(=O)O` [Example 1-71, 3-(acetylamino)-2′-[1-[(2R)-3-[[1-(naphthalen-2-yl)-2-methylpropan-2-yl]amino]-2-hydroxypropoxy]ethyl]biphenyl-4-carboxylic acid], the IC50 at human calcium receptor stood at 5 nM.
As to `Cc1ccc(CC(C)(C)NC[C@@H](O)CO[C@H](C)c2ccccc2Oc2ccc(C(=O)O)c(Cl)c2)cc1F` [Example 2-31, 4-[2-[1-[(2R)-3-[[1-(3-fluoro-4-methylphenyl)-2-methylpropan-2-yl]amino]-2-hydroxypropoxy]ethyl]phenoxy]-2-chlorobenzoic acid], on human calcium receptor, the IC50 is 16 nM.
Consider `CCC(C)c1cc(-c2ccccc2[C@@H](C)OC[C@H](O)CNC(C)(C)Cc2ccc(C)c(F)c2)ccc1C(=O)O` (stereo partly drawn) [Example 1-53, 2′-[1-[(2R)-3-[[1-(3-fluoro-4-methylphenyl)-2-methylpropan-2-yl]amino]-2-hydroxypropoxy]ethyl]-3-(1-methylpropyl)biphenyl-4-carboxylic acid], for which the IC50 at human calcium receptor was 15 nM.
Take `Cc1ccc(CC(C)(C)NC[C@@H](O)CO[C@H](C)c2ccccc2-c2ccc(CO)c(C(=O)O)c2)cc1F` [Example 1-47, 2′-[1-[(2R)-3-[[1-(3-fluoro-4-methylphenyl)-2-methylpropan-2-yl]amino]-2-hydroxypropoxy]ethyl]-4-(hydroxymethyl)biphenyl-3-carboxylic acid]: on human calcium receptor, the IC50 is 65 nM.
In the case of `CC(OC[C@H](O)CNC(C)(C)Cc1ccc2ccccc2c1)c1ccccc1Sc1ccc(C(=O)O)cc1` (stereo partly drawn) [Example 2-16, 4-[2-[1-[(2R)-3-[[1-(naphthalen-2-yl)-2-methylpropan-2-yl]amino]-2-hydroxypropoxy]ethyl]phenylthio]benzoic acid], the IC50 on human calcium receptor amounted to 14 nM.
Take `Cc1ccc(-c2ccccc2[C@@H](C)OC[C@H](O)CNC(C)(C)Cc2ccc3ccccc3c2)cc1C(=O)O` [Example 1-85, 4-methyl-2′-[1-[(2R)-3-[[1-(naphthalen-2-yl)-2-methylpropan-2-yl]amino]-2-hydroxypropoxy]ethyl]biphenyl-3-carboxylic acid]: the IC50 on human calcium receptor amounted to 4 nM.
Consider `Cc1ccc(CC(C)(C)NC[C@@H](O)CO[C@H](C)c2ccccc2-c2c(C)cc(C(=O)O)cc2C)cc1F` [Example 1-76], for which, at human calcium receptor, the IC50 worked out at 22 nM.
Turning to `Cc1ccc(CC(C)(C)NC[C@@H](O)CO[C@H](C)c2ccccc2-c2ccc(C(=O)O)c(C(C)(C)C)c2)cc1F` [Example 1-98, 2′-[1-[(2R)-3-[[1-(3-fluoro-4-methylphenyl)-2-methylpropan-2-yl]amino]-2-hydroxypropoxy]ethyl]-3-t-butylbiphenyl-4-carboxylic acid], the IC50 on human calcium receptor came out at 13 nM.
